# Test results reported in publication PMC12398505 (Nature Communications, 2025).
# How the values were obtained:
# SLCO2A1 C420F mutant = SLCO2A1 C420F mutant (Homo sapiens, UniProt Q92959, C420F); test: 6-CF uptake assay, HEK293F cells expressing SLCO2A1 C420F; type: cell-based; conditions: C420F mutant vs WT
# SLCO2A1 C448A mutant = SLCO2A1 C448A mutant (Homo sapiens, UniProt Q92959, C448A); test: 6-CF uptake assay, HEK293F cells expressing SLCO2A1 C448A; type: cell-based; conditions: C448A mutant vs WT
# SLCO2A1 W565F mutant = SLCO2A1 W565F mutant (Homo sapiens, UniProt Q92959, W565F); test: 6-CF uptake assay, HEK293F cells expressing SLCO2A1 W565F; type: cell-based; conditions: 50 μM 6-CF
# SLCO2A1 S346A mutant = SLCO2A1 S346A mutant (Homo sapiens, UniProt Q92959, S346A); type: cell-based
# SLCO2A1 R445C mutant = SLCO2A1 R445C mutant (Homo sapiens, UniProt Q92959, R445C); test: 6-CF uptake assay, HEK293F cells expressing SLCO2A1 R445C; type: cell-based; conditions: 50 μM 6-CF
# SLCO2A1 C143A mutant = SLCO2A1 C143A mutant (Homo sapiens, UniProt Q92959, C143A); test: 6-CF uptake assay, HEK293F cells expressing SLCO2A1 C143A; type: cell-based; conditions: C143A mutant vs WT
# SLCO2A1 [1] = conditions: read-out: Km for 6-CF reported in a previous study; cited from earlier work
# SLCO2A1 E465K mutant = SLCO2A1 E465K mutant (Homo sapiens, UniProt Q92959, E465K); test: 6-CF uptake assay, HEK293F cells expressing SLCO2A1 E465K; type: cell-based; conditions: E465K mutant vs WT
# SLCO2A1 Y90A mutant = SLCO2A1 Y90A mutant (Homo sapiens, UniProt Q92959, Y90A); test: 6-CF uptake assay, HEK293F cells expressing SLCO2A1 Y90A; type: cell-based; conditions: 50 μM 6-CF
# SLCO2A1 [2] = conditions: read-out: IC50 in competitively inhibiting radioactive PGE2; pH 7.4; cited from earlier work
# human SLCO2A1 = human SLCO2A1 (Homo sapiens, UniProt Q92959); test: 6-CF uptake assay in HEK293F cells expressing SLCO2A1 WT
Compound,decrease of 6-CF uptake activity (SLCO2A1 C420F mutant),reduction of the 6-CF uptake activity (SLCO2A1 C448A mutant),6-CF uptake (percentage of SLCO2A1-WT) (SLCO2A1 W565F mutant),increase in 6-CF uptake activity (SLCO2A1 S346A mutant),6-CF uptake (percentage of SLCO2A1-WT) (SLCO2A1 R445C mutant),reduction of the 6-CF uptake activity (SLCO2A1 C143A mutant),Km (SLCO2A1 [1]),decrease of 6-CF uptake activity (SLCO2A1 E465K mutant),6-CF uptake (percentage of SLCO2A1-WT) (SLCO2A1 Y90A mutant),IC50 (SLCO2A1 [2]),IC50 (human SLCO2A1),"IC50 (6-CF uptake) relative to IC50 (radioactive PGE2, pH 7.4) (human SLCO2A1; IC50 2.21 μM vs 0.17 μM)"
6-Carboxyfluorescein [6-CF],more than 80%,~55%,~50%,1.5 fold,60%,approximately 80%,270 ± 40.7 µM,more than 80%,60%,,,
Cc1ccc(C(=O)Nc2ccc(S(=O)(=O)O)c3cc(S(=O)(=O)O)cc(S(=O)(=O)O)c23)cc1NC(=O)c1cccc(NC(=O)Nc2cccc(C(=O)Nc3cc(C(=O)Nc4ccc(S(=O)(=O)O)c5cc(S(=O)(=O)O)cc(S(=O)(=O)O)c45)ccc3C)c2)c1 [suramin],,,,,,,,,,170 nM,2210 ± 370 nM,13 fold
